The results in this text go back to US8637681B2, “Pyrrolyl substituted dihydroindol-2-one derivatives, preparation methods and uses thereof” (Qilu Pharmaceutical Co., Ltd., priority 2010, dated 2014).

Series [1] concerns three kinds of tumor cells (A549, Hela, A431). As to the kind of experiment: Cytotoxicity test, summary over the three tumor cell lines. Type of series: cell-based, human. The note with it: compared with positive control Sunitinib. The method, then:
Cytotoxicity of the compounds of the present invention was tested with human non-small cell lung cancer cells A549, human cervical cancer Hela cells, human skin cancer cells A431. The test was performed by referring to the method described by Rusnak et al (Rusnak D. W., et al., Cell Prolif., 2007, 40, 580-94).
In Dulbecco's Modified Eagle Medium (DMEM) comprising 10% fetal bovine serum, 2 mM glutamine and non-essential amino acids, cells were cultured at 37° C. in 5% CO2 cell incubator. Trypsin/ethylenediamine tetraacetic acid (EDTA) were used to harvest cells in cell culture bottle. The cells were added to a 96-well cell culture plate, 4000/well (0.1 ml medium), adhering wall overnight, 0.1 ml of the diluted solution of the compounds to be tested was added, the final concentration of DMSO was 0.25%. The cell culture plate was incubated at 37° C., 5% CO2 conditions for 72 h. The change of cellular morphology was observed under microscope, and then 50 μl of 50% (mass/volume) trichloroacetic acid (TCA) was added to each well to fix cells. The final concentration of TCA was 10%. It stood for 5 min, than was placed in 4° C. refrigerator for 1 h, the wells of the culture plate were washed with deionized water for 5 times to remove TCA, drained, dried in air until no wet trace was observed. 100 μl of 0.4% (mass/volume) SRB was added to each well, stood at room temperature for 10 min. The liquid in each well was discarded, and then the wells were washed with 1% acetic acid for 5 times, dried in air, extracted with 150 μl of 10 mM Tris base (trihydroxymethylaminomethane, pH 10.5). The absorption at a wavelength of 540 nm was measured. The IC50 (μM) of the compound was calculated using Logit method.

Series [2] is described as follows: Cytotoxicity test (SRB), Hela. Type of series: cell-based. The note with it: human, Hela cervical cancer cells. The essentials: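 A549, Hela and A431 cells seeded at 4000/well, adhered overnight, then exposed to compound dilutions (final DMSO 0.25%) for 72 h at 37° C., 5% CO2. SRB read-out: absorbance at 540 nm; IC50 (μM) calculated by Logit method.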
For series [3], the system named is arterial ring angiogenesis in rats. Kind of series: Inhibitory actions on arterial ring angiogenesis in rats. Type of series: cell-based. The note with it: Rattus norvegicus, area covered by micrangiums vs control well, read-out: Inhibitory rate (%). In a few lines:
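Rat thoracic aorta cut into 1 mm rings, embedded in Matrigel and cultured at 37 °C with compound; medium and drug renewed every 3 days. Microvessel sprouting area imaged by microscopy; inhibition (%) = (control area − drug area)/control area × 100.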

A short description of series [4]: Cytotoxicity test (SRB), A549. Type of series: cell-based. The note with it: human, A549 non-small cell lung cancer cells. The essentials:
(§1)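 Cells seeded at 4000/well in DMEM with 10% FBS, adhered overnight, then treated 72 h at 37° C, 5% CO2 with compound (final DMSO 0.25%). TCA-fixed and stained with SRB, A540 read. IC50 (μM) calculated by Logit method.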

Series [5] deals with human colon cancer HT 29 transplanted tumor. Kind of series: Nude mice transplanted tumor test. Type of series: in vivo, female Balb/cA nude mice. Also noted: key to d21 Vave ± SD (average tumor volume): tumor volume TV = ½×a×b² (a, b = major, minor diameter), in mm³. The essentials:
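Female Balb/cA nude mice bearing HT 29 colon tumour fragments in the right axilla, grouped at about 120 mm^3, received 80 mg/kg intragastrically daily for 20 days; vehicle was water with 0.1% Tween 80. Tumour volume (½×a×b^2) measured 2-3 times weekly, expressed as relative tumour volume Vt/V0.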

A short description of series [6]: Cytotoxicity test (SRB), A431. Type of series: cell-based. The settings on record: human, A431 skin cancer cells. In a few lines:
as §1

The term IC50 denotes the point on the concentration scale where inhibition reaches its midpoint. As for `CCN(CC)CC(=O)Nc1c(C)[nH]c(/C=C2\C(=O)Nc3ccc(F)cc32)c1C` [Compound 20, N-{5-[5-fluoro-2-oxo-1,2-dihydro-indol-(3Z)-ylidenemethyl]-2,4-dimethyl-1H-pyrrol-3-yl}-2-(N,N-diethylamino)acetamide], the “Cytotoxicity to tumor cells (in words)” value in series [1] is recorded as “certain toxicity to some cells”. The figures for the IC50 at 72 h in series [2], in series [4] and in series [6] were 5.21 µM, above 30 µM and above 30 µM, respectively. In addition, the inhibition at 0.2 µg/mL in series [3] (0.2 μg/ml) is 98%. In addition, in series [3] (1 μg/ml), the inhibition at 1 µg/mL is 100%. Also, in series [3] (5 μg/ml), the inhibition at 5 µg/mL stood at 100%. Moreover, the Dead animal number in series [5] (80 mg/kg intragastrically each day for 20 days, dead/total animals) is 0/6. Further, the “Activity of inhibiting HT-29 transplanted tumor in vivo (in words)” value in series [5] (80 mg/kg, compared with positive control Sunitinib) was “inhibitory activity comparable to the positive control Sunitinib”. For the same compound, the inhibition in vivo at 80 mg/kg in series [5] (Mus musculus, HT-29, po, 504 h, d21, 80 mg/kg intragastrically each day for 20 days, (1−T/C)×100%, read-out: Tumor inhibition rate d21 (%)) was 89.4%. Besides, in series [5] (d0, at grouping before administration (baseline)), the “d0 Wave ± SD (average bodyweight of nude mice)” value is 19.6 ± 0.69. Moreover, in series [5] (d21, 80 mg/kg intragastrically each day for 20 days), the “d21 Wave ± SD (average bodyweight of nude mice)” value was 20.3 ± 0.63. The “d21 Vave ± SD (average tumor volume)” value in series [5] (d21, 80 mg/kg intragastrically each day for 20 days, HT 29 in nude mice, in mm³ (unit assumed)) is recorded as 93.5 ± 42.8. For the same compound, the “d21 RTV ± SD (relative tumor volume)” value in series [5] (d21, 80 mg/kg intragastrically each day for 20 days, RTV=Vt/V0) came to 0.76 ± 0.32.
